Several values for one entry are separate records, joined by “and”; a condition that tells them apart may be missing. Equal entries are not always repeated.
Key:
[1] = tested on: Influenza A/Vietnam/1203/2004 (H5N1); type: cell-based, influenza A virus; conditions: 72 h
[2] = tested on: influenza A/Brisbane/59/2007 (H1N1) virus; type: cell-based

Row | Structure (SMILES) | SI values (SI = IC50/EC50) of screening hits [1] | Reduction in M1 RNA levels vs no-drug infected MDCK cells [2]
1 | O=S(=O)(O)c1cc(O)c(N=Nc2ccc3cccc(S(=O)(=O)O)c3c2O)c2ccccc12 [SR 22859] | > 13.8 | –
2 | O=C(Nc1c(-c2ccccc2)nc2sccn12)c1ccccc1 [compound 786409] | > 94.6 | –
3 | CN(C)c1cccc(C(=O)Nc2ccc3nc4n(c(=O)c3c2)CCCCC4)c1 [compound 9551353] | > 3.5 | –
4 | NC(=O)c1ncn([C@@H]2O[C@H](CO)[C@@H](O)[C@H]2O)n1 [ribavirin] | – | 1.3 fold and 1.9 fold
